From patent EP0726263A2, “Herbicidal (1,3,4)oxadiazoles and thiadiazoles” (American Cyanamid Company, priority 1995, dated 1996)

Assays:
Type in all cases: in vivo
[1] = system: Ipomoea hederacea; assay: Herbicidal activity, preemergence test; conditions: pre; sprayed onto soil, 800 g of active material per hectare; evaluated 3 weeks after treatment
How it was run: (§1)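 First, test compound in acetone containing 0.4% Triton X-155 is diluted with water. Next, it is sprayed at 800 g/ha (900 L/ha) onto freshly seeded loam (pre) or onto seedlings (post). Finally, plants are scored 0-9 visually after 3 or 2 weeks, respectively.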

[2] = system: Triticum aestivum; assay: Herbicidal activity, preemergence test; conditions: pre; sprayed onto soil, 800 g of active material per hectare; evaluated 3 weeks after treatment
How it was run: as §1

[3] = system: Lamium purpureum; assay: Herbicidal activity, preemergence test; conditions: pre; sprayed onto soil, 800 g of active material per hectare; evaluated 3 weeks after treatment
How it was run: as §1

[4] = system: Gossypium hirsutum; assay: Herbicidal activity, preemergence test; conditions: pre; sprayed onto soil, 800 g of active material per hectare; evaluated 3 weeks after treatment
How it was run: as §1

[5] = system: Setaria viridis; assay: Herbicidal activity, preemergence test; conditions: pre; sprayed onto soil, 800 g of active material per hectare; evaluated 3 weeks after treatment
How it was run: as §1

[6] = system: Veronica persica; assay: Herbicidal activity, preemergence test; conditions: pre; sprayed onto soil, 800 g of active material per hectare; evaluated 3 weeks after treatment
How it was run: as §1

[7] = system: Stellaria media; assay: Herbicidal activity, preemergence test; conditions: pre; sprayed onto soil, 800 g of active material per hectare; evaluated 3 weeks after treatment
How it was run: as §1

[8] = system: Hordeum vulgare; assay: Herbicidal activity, preemergence test; conditions: pre; sprayed onto soil, 800 g of active material per hectare; evaluated 3 weeks after treatment
How it was run: as §1

[9] = system: Ambrosia artemisifolia; assay: Herbicidal activity, preemergence test; conditions: pre; sprayed onto soil, 800 g of active material per hectare; evaluated 3 weeks after treatment
How it was run: as §1

[10] = system: Galium aparine; assay: Herbicidal activity, preemergence test; conditions: pre; sprayed onto soil, 800 g of active material per hectare; evaluated 3 weeks after treatment
How it was run: as §1

[11] = system: Papaver rhoeas; assay: Herbicidal activity, preemergence test; conditions: pre; sprayed onto soil, 800 g of active material per hectare; evaluated 3 weeks after treatment
How it was run: as §1

[12] = system: Amaranthus retroflexus; assay: Herbicidal activity, preemergence test; conditions: pre; sprayed onto soil, 800 g of active material per hectare; evaluated 3 weeks after treatment
How it was run: as §1

[13] = system: Alopecurus myosuroides; assay: Herbicidal activity, preemergence test; conditions: pre; sprayed onto soil, 800 g of active material per hectare; evaluated 3 weeks after treatment
How it was run: as §1

[14] = system: Glycine max; assay: Herbicidal activity, preemergence test; conditions: pre; sprayed onto soil, 800 g of active material per hectare; evaluated 3 weeks after treatment
How it was run: as §1

[15] = system: Zea mays; assay: Herbicidal activity, preemergence test; conditions: pre; sprayed onto soil, 800 g of active material per hectare; evaluated 3 weeks after treatment
How it was run: as §1

[16] = system: Abutilon theophrasti; assay: Herbicidal activity, preemergence test; conditions: pre; sprayed onto soil, 800 g of active material per hectare; evaluated 3 weeks after treatment
How it was run: as §1

[17] = system: Chenopodium album; assay: Herbicidal activity, preemergence test; conditions: pre; sprayed onto soil, 800 g of active material per hectare; evaluated 3 weeks after treatment
How it was run: as §1

[18] = system: Matricaria inodora; assay: Herbicidal activity, preemergence test; conditions: pre; sprayed onto soil, 800 g of active material per hectare; evaluated 3 weeks after treatment
How it was run: as §1

[19] = system: Ipomoea hederacea; assay: Herbicidal activity, postemergence test; conditions: post; sprayed onto seedling plants, 800 g of active material per hectare; evaluated 2 weeks after treatment
How it was run: as §1

[20] = system: Triticum aestivum; assay: Herbicidal activity, postemergence test; conditions: post; sprayed onto seedling plants, 800 g of active material per hectare; evaluated 2 weeks after treatment
How it was run: as §1

[21] = system: Lamium purpureum; assay: Herbicidal activity, postemergence test; conditions: post; sprayed onto seedling plants, 800 g of active material per hectare; evaluated 2 weeks after treatment
How it was run: as §1

[22] = system: Gossypium hirsutum; assay: Herbicidal activity, postemergence test; conditions: post; sprayed onto seedling plants, 800 g of active material per hectare; evaluated 2 weeks after treatment
How it was run: as §1

[23] = system: Setaria viridis; assay: Herbicidal activity, postemergence test; conditions: post; sprayed onto seedling plants, 800 g of active material per hectare; evaluated 2 weeks after treatment
How it was run: as §1

[24] = system: Veronica persica; assay: Herbicidal activity, postemergence test; conditions: post; sprayed onto seedling plants, 800 g of active material per hectare; evaluated 2 weeks after treatment
How it was run: as §1

[25] = system: Stellaria media; assay: Herbicidal activity, postemergence test; conditions: post; sprayed onto seedling plants, 800 g of active material per hectare; evaluated 2 weeks after treatment
How it was run: as §1

[26] = system: Hordeum vulgare; assay: Herbicidal activity, postemergence test; conditions: post; sprayed onto seedling plants, 800 g of active material per hectare; evaluated 2 weeks after treatment
How it was run: as §1

[27] = system: Ambrosia artemisifolia; assay: Herbicidal activity, postemergence test; conditions: post; sprayed onto seedling plants, 800 g of active material per hectare; evaluated 2 weeks after treatment
How it was run: as §1

[28] = system: Galium aparine; assay: Herbicidal activity, postemergence test; conditions: post; sprayed onto seedling plants, 800 g of active material per hectare; evaluated 2 weeks after treatment
How it was run: as §1

[29] = system: Papaver rhoeas; assay: Herbicidal activity, postemergence test; conditions: post; sprayed onto seedling plants, 800 g of active material per hectare; evaluated 2 weeks after treatment
How it was run: as §1

[30] = system: Amaranthus retroflexus; assay: Herbicidal activity, postemergence test; conditions: post; sprayed onto seedling plants, 800 g of active material per hectare; evaluated 2 weeks after treatment
How it was run: as §1

[31] = system: Alopecurus myosuroides; assay: Herbicidal activity, postemergence test; conditions: post; sprayed onto seedling plants, 800 g of active material per hectare; evaluated 2 weeks after treatment
How it was run: as §1

[32] = system: Glycine max; assay: Herbicidal activity, postemergence test; conditions: post; sprayed onto seedling plants, 800 g of active material per hectare; evaluated 2 weeks after treatment
How it was run: as §1

[33] = system: Zea mays; assay: Herbicidal activity, postemergence test; conditions: post; sprayed onto seedling plants, 800 g of active material per hectare; evaluated 2 weeks after treatment
How it was run: as §1

[34] = system: Abutilon theophrasti; assay: Herbicidal activity, postemergence test; conditions: post; sprayed onto seedling plants, 800 g of active material per hectare; evaluated 2 weeks after treatment
How it was run: as §1

[35] = system: Chenopodium album; assay: Herbicidal activity, postemergence test; conditions: post; sprayed onto seedling plants, 800 g of active material per hectare; evaluated 2 weeks after treatment
How it was run: as §1

[36] = system: Matricaria inodora; assay: Herbicidal activity, postemergence test; conditions: post; sprayed onto seedling plants, 800 g of active material per hectare; evaluated 2 weeks after treatment
How it was run: as §1

SMILES | IPOHE control rating (0-9) [1] | TRZAW control rating (0-9) [2] | LAMPU control rating (0-9) [3] | GOSHI control rating (0-9) [4] | SETVI control rating (0-9) [5] | VERPE control rating (0-9) [6] | STEME control rating (0-9) [7] | HORVW control rating (0-9) [8] | AMBEL control rating (0-9) [9] | GALAP control rating (0-9) [10] | PAPRH control rating (0-9) [11] | AMARE control rating (0-9) [12] | ALOMY control rating (0-9) [13] | GLXMA control rating (0-9) [14] | ZEAMX control rating (0-9) [15] | ABUTH control rating (0-9) [16] | CHEAL control rating (0-9) [17] | MATIN control rating (0-9) [18] | IPOHE control rating (0-9) [19] | TRZAW control rating (0-9) [20] | other results
C[C@H](NC(=O)c1nnc(-c2cc(Cl)cc(Cl)c2)o1)c1ccccc1 [Example 28] | 0 (no effect) | 0 (no effect) | 0 (no effect) | 0 (no effect) | 0 (no effect) | 0 (no effect) | 0 (no effect) | 0 (no effect) | 0 (no effect) | 0 (no effect) | 0 (no effect) | 0 (no effect) | 0 (no effect) | 0 (no effect) | 0 (no effect) | 0 (no effect) | 0 (no effect) | 0 (no effect) | 0 (no effect) | 0 (no effect) | LAMPU control rating (0-9) [21]: 0 (no effect); GOSHI control rating (0-9) [22]: 0 (no effect); SETVI control rating (0-9) [23]: 0 (no effect); VERPE control rating (0-9) [24]: 0 (no effect); STEME control rating (0-9) [25]: 0 (no effect); HORVW control rating (0-9) [26]: 0 (no effect); AMBEL control rating (0-9) [27]: 0 (no effect); GALAP control rating (0-9) [28]: 0 (no effect); PAPRH control rating (0-9) [29]: 0 (no effect); AMARE control rating (0-9) [30]: 0 (no effect); ALOMY control rating (0-9) [31]: 0 (no effect); GLXMA control rating (0-9) [32]: 2 (slight effect); ZEAMX control rating (0-9) [33]: 0 (no effect); ABUTH control rating (0-9) [34]: 0 (no effect); CHEAL control rating (0-9) [35]: 2 (slight effect); MATIN control rating (0-9) [36]: 0 (no effect)
C[C@H](NC(=O)c1nnc(-c2ccc(F)cc2F)o1)c1ccccc1 [Example 32] | 0 (no effect) | 0 (no effect) | 8 (approaching complete kill) | 0 (no effect) | 9 (complete kill) | 9 (complete kill) | 9 (complete kill) | 0 (no effect) | 1 (trace effect) | 2 (slight effect) | 8 (approaching complete kill) | 9 (complete kill) | 3 (moderate effect) | 0 (no effect) | 0 (no effect) | 2 (slight effect) | 8 (approaching complete kill) | 9 (complete kill) | 9 (complete kill) | 3 (moderate effect) | LAMPU control rating (0-9) [21]: 9 (complete kill); GOSHI control rating (0-9) [22]: 9 (complete kill); SETVI control rating (0-9) [23]: 9 (complete kill); VERPE control rating (0-9) [24]: 9 (complete kill); STEME control rating (0-9) [25]: 9 (complete kill); HORVW control rating (0-9) [26]: 3 (moderate effect); AMBEL control rating (0-9) [27]: 8 (approaching complete kill); GALAP control rating (0-9) [28]: 6 (herbicidal effect); PAPRH control rating (0-9) [29]: 9 (complete kill); AMARE control rating (0-9) [30]: 8 (approaching complete kill); ALOMY control rating (0-9) [31]: 3 (moderate effect); GLXMA control rating (0-9) [32]: 5 (definite injury); ZEAMX control rating (0-9) [33]: 3 (moderate effect); ABUTH control rating (0-9) [34]: 8 (approaching complete kill); CHEAL control rating (0-9) [35]: 9 (complete kill); MATIN control rating (0-9) [36]: 9 (complete kill)
